From ChEMBL document CHEMBL3091304 (Bioorg Med Chem, 2013)
Calls of active or inactive are those of the source. The calls are words filed in the database; no cut-off is given here.

How the values were obtained:
[1] = target: Delta-type opioid receptor (Cricetulus griseus) (UniProt G3H1Y1); test: Displacement of [3H]DADLE from delta opioid receptor in CHO cells at 1 uM after 120 mins relative to control; assay type: cell-based
[2] = species on record: Rattus norvegicus; test: Inhibition of UDP-glucuronosyltransferase in Sprague-Dawley rat liver microsomes assessed as morphine conversion to M6G after 30 mins by HPLC analysis
[3] = target: Mu-type opioid receptor (Homo sapiens) (UniProt P35372); conditions: HEK293, at 1 µM
Description: Displacement of [3H]diprenorphine from mu opioid receptor in HEK293 cells at 1 uM after 120 mins relative to control

[4] = tested on: Hepatocyte; test: Inhibition of UDP-glucuronosyltransferase in Sprague-Dawley rat hepatocytes assessed as morphine conversion to M3G at 5 to 10 uM incubated for 72 hrs prior to substrate addition measured after 2 hrs by HPLC analysis; assay type: cell-based
[5] = target: Kappa-type opioid receptor (Cricetulus griseus) (UniProt G3HZR5); test: Displacement of [3H]U-69593 from kappa opioid receptor in CHO cells at 10 uM after 120 mins relative to control; assay type: cell-based
[6] = target: Mu-type opioid receptor (Homo sapiens) (UniProt P35372); conditions: HEK293, at 10 µM
Description: Displacement of [3H]diprenorphine from mu opioid receptor in HEK293 cells at 10 uM after 120 mins relative to control

[7] = species on record: Rattus norvegicus; test: Inhibition of UDP-glucuronosyltransferase in Sprague-Dawley rat liver microsomes assessed as morphine conversion to M3G up to 50 uM after 30 mins by HPLC analysis relative to control
[8] = target: Kappa-type opioid receptor (Cricetulus griseus) (UniProt G3HZR5); test: Displacement of [3H]U-69593 from kappa opioid receptor in CHO cells at 1 uM after 120 mins relative to control; assay type: cell-based
[9] = Clearance in Sprague-Dawley rat liver microsomes at 10 uM; assay type: ADME; conditions: read-out: CLH
[10] = tested on: Hepatocyte; test: Inhibition of UDP-glucuronosyltransferase in Sprague-Dawley rat hepatocytes assessed as morphine conversion to M3G at 5 to 40 uM incubated for 72 hrs prior to substrate addition measured after 2 hrs by HPLC analysis; assay type: cell-based
[11] = Clearance in Sprague-Dawley rat liver microsomes at 1 uM; assay type: ADME; conditions: read-out: CLH
[12] = (§1) Inhibition of UDP-glucuronosyltransferase in Sprague-Dawley rat liver microsomes assessed as morphine conversion to M3G after 30 mins by HPLC analysis
[13] = species on record: Rattus norvegicus; test: as §1
[14] = target: Delta-type opioid receptor (Cricetulus griseus) (UniProt G3H1Y1); test: Displacement of [3H]DADLE from delta opioid receptor in CHO cells at 10 uM after 120 mins relative to control; assay type: cell-based
[15] = species on record: Rattus norvegicus; test: Activity at UDP-glucuronosyltransferase in Sprague-Dawley rat liver microsomes assessed as morphine conversion to M3G at 5 uM by Michaelis-Menten plot analysis
[16] = Clearance in Sprague-Dawley rat liver microsomes at 5 uM; assay type: ADME; conditions: read-out: CLH
[17] = Clearance in Sprague-Dawley rat liver microsomes at 2.5 uM; assay type: ADME; conditions: read-out: CLH
[18] = species on record: Rattus norvegicus; test: Activity at UDP-glucuronosyltransferase in Sprague-Dawley rat liver microsomes assessed as morphine conversion to M3G at 50 uM by Michaelis-Menten plot analysis
[19] = Clearance in Sprague-Dawley rat liver microsomes at 50 uM; assay type: ADME; conditions: read-out: CLH
[20] = species on record: Rattus norvegicus; test: Activity at UDP-glucuronosyltransferase in Sprague-Dawley rat liver microsomes assessed as morphine conversion to M3G at 1 uM by Michaelis-Menten plot analysis
[21] = species on record: Rattus norvegicus; test: Activity at UDP-glucuronosyltransferase in Sprague-Dawley rat liver microsomes assessed as morphine conversion to M3G at 10 uM by Michaelis-Menten plot analysis
[22] = species on record: Rattus norvegicus; test: Activity at UDP-glucuronosyltransferase in Sprague-Dawley rat liver microsomes assessed as morphine conversion to M3G at 2.5 uM by Michaelis-Menten plot analysis
[23] = species on record: Rattus norvegicus; test: Competitive inhibition of UDP-glucuronosyltransferase in Sprague-Dawley rat liver microsomes assessed as morphine conversion to M3G up to 5 uM by Lineweaver-Burk plot analysis
[24] = Inhibition of UDP-glucuronosyltransferase in Sprague-Dawley rat hepatocytes assessed as morphine conversion to M3G incubated for 72 hrs prior to substrate addition measured after 2 hrs by HPLC analysis; assay type: cell-based; conditions: Hepatocyte

Chain of Delta-type opioid receptor (Cricetulus griseus) (G3H1Y1 as listed by the source): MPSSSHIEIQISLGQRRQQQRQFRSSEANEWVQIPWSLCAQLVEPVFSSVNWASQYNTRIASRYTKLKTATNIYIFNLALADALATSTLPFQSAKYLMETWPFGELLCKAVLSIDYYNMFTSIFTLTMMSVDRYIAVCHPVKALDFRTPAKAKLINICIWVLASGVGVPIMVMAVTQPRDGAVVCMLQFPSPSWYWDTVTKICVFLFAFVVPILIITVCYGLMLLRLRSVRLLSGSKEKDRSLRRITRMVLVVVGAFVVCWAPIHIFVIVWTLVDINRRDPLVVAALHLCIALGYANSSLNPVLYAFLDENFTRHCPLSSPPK
Chain of Mu-type opioid receptor (Homo sapiens) (P35372 whole entry): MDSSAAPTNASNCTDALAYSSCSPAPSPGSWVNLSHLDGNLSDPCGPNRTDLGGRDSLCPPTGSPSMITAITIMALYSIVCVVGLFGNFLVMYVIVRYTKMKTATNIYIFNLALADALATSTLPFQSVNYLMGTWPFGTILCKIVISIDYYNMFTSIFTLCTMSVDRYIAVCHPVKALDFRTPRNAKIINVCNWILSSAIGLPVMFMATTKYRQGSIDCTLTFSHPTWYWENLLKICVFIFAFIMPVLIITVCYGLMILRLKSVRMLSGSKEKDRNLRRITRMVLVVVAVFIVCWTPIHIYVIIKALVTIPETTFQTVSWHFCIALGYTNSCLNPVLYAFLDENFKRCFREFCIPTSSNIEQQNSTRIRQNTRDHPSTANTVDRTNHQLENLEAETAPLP
Chain of Kappa-type opioid receptor (Cricetulus griseus) (G3HZR5 as listed by the source): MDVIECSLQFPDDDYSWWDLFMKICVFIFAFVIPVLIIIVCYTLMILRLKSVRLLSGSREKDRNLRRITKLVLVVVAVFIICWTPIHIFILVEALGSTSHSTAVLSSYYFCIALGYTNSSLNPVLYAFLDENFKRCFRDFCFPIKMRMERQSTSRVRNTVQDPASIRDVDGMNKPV

COc1ccc2c3c1O[C@H]1[C@@H](OC(C)=O)CC[C@H]4[C@@H](C2)N(C)CC[C@@]341
inhibition [1]: -10% | inhibition [2]: inactive | inhibition [3]: -2% | inhibition [4]: inactive | inhibition [5]: 13% | inhibition [6]: 5% | inhibition [7]: Active | inhibition [8]: 3%

COc1ccc2c3c1O[C@H]1[C@@H](OC(=O)C(C)(C)C)C=C[C@H]4[C@@H](C2)N(C)CC[C@@]341
microsomal CLint at 10 µM [9]: 6.88 µL/min/mg | inhibition [1]: 57% | inhibition [10]: Active | microsomal CLint at 1 µM [11]: 52.7 µL/min/mg | IC50 [12]: 2.27 µM | Ki [12]: 2.56 µM | inhibition [13]: Dose-dependent effect | inhibition [14]: 90% | Km [15]: 0.36 µM | Vmax [15]: 4.53 nmol/min/mg | microsomal CLint at 5 µM [16]: 12.7 µL/min/mg | microsomal CLint at 2.5 µM [17]: 29.1 µL/min/mg | Km [18]: 0.62 µM | Vmax [18]: 3.95 nmol/min/mg | inhibition [2]: inactive | inhibition [3]: 20% | microsomal CLint at 50 µM [19]: 6.54 µL/min/mg | Km [20]: 0.13 µM | Vmax [20]: 7.03 nmol/min/mg | inhibition [5]: 42% | inhibition [6]: 38% | Km [21]: 0.72 µM | Vmax [21]: 4.63 nmol/min/mg | Km [22]: 0.22 µM | Vmax [22]: 6.28 nmol/min/mg | inhibition [8]: 6%

COc1ccc2c3c1O[C@H]1[C@@H](O)CC[C@H]4[C@@H](C2)N(C)CC[C@@]341
inhibition [1]: 7% | inhibition [14]: 24% | inhibition [2]: inactive | inhibition [3]: 17% | inhibition [4]: inactive | inhibition [5]: 51% | inhibition [6]: 40% | inhibition [7]: 40% | inhibition [8]: 4%

COc1ccc2c3c1O[C@H]1[C@@H](OC(C)=O)C=C[C@H]4[C@@H](C2)N(C)CC[C@@]341
microsomal CLint at 10 µM [9]: 9.38 µL/min/mg | inhibition [1]: 18% | inhibition [10]: Active | microsomal CLint at 1 µM [11]: 37.8 µL/min/mg | IC50 [12]: 3.25 µM | Ki [12]: 5.17 µM | inhibition [13]: Dose-dependent effect | inhibition [14]: 60% | Km [15]: 0.56 µM | Vmax [15]: 7.92 nmol/min/mg | microsomal CLint at 5 µM [16]: 25 µL/min/mg | microsomal CLint at 2.5 µM [17]: 24.7 µL/min/mg | Km [18]: 0.69 µM | Vmax [18]: 4.01 nmol/min/mg | inhibition [2]: inactive | inhibition [3]: 19% | microsomal CLint at 50 µM [19]: 5.97 µL/min/mg | Km [20]: 0.26 µM | Vmax [20]: 9.74 nmol/min/mg | inhibition [5]: 66% | inhibition [23]: inactive | inhibition [6]: 43% | Km [21]: 0.35 µM | Vmax [21]: 3.31 nmol/min/mg | Km [22]: 0.41 µM | Vmax [22]: 10.1 nmol/min/mg | inhibition [8]: 25%

CCCCCCCCCCCC(=O)O[C@H]1C=C[C@H]2[C@H]3Cc4ccc(OC)c5c4[C@@]2(CCN3C)[C@H]1O5
inhibition [1]: -7% | inhibition [14]: 13% | inhibition [2]: inactive | inhibition [3]: 0% | inhibition [5]: 40% | inhibition [6]: 12% | inhibition [7]: Active | inhibition [8]: 8%

COc1ccc2c3c1O[C@H]1[C@@H](O)C=C[C@H]4[C@@H](C2)N(C)CC[C@@]341 [CODEINE]
microsomal CLint at 10 µM [9]: 11.9 µL/min/mg | microsomal CLint at 1 µM [11]: 48 µL/min/mg | IC50 [12]: 4.32 µM | Ki [12]: 6.9 µM | inhibition [13]: Dose-dependent effect | Km [15]: 0.43 µM | Vmax [15]: 8.04 nmol/min/mg | microsomal CLint at 5 µM [16]: 18.6 µL/min/mg | microsomal CLint at 2.5 µM [17]: 31.1 µL/min/mg | IC50 [24]: 20.9 µM | Km [18]: 0.48 µM | Vmax [18]: 4.06 nmol/min/mg | inhibition [2]: inactive | microsomal CLint at 50 µM [19]: 8.35 µL/min/mg | Km [20]: 0.26 µM | Vmax [20]: 12.5 nmol/min/mg | inhibition [23]: inactive | Km [21]: 0.37 µM | Vmax [21]: 4.41 nmol/min/mg | Km [22]: 0.41 µM | Vmax [22]: 12.4 nmol/min/mg

CN1CC[C@]23c4c5ccc(O)c4O[C@H]2[C@@H](O)C=C[C@H]3[C@H]1C5
inhibition [1]: 72% | inhibition [14]: 95% | inhibition [5]: 100% | inhibition [8]: 95%
